Results published in BindingDB's records for doi:10.1021/acs.jmedchem.7b00155 (University of Bari Aldo Moro, 2017).

Molecular target: Cannabinoid receptor 1 (Homo sapiens, UniProt P21554)
Test: ChEBML_1680109
Source text: Agonist activity at human CB1 receptor expressed in mouse AtT-20 cells co expressing GIRK by FLIPR assay

Sequence of Cannabinoid receptor 1 (P21554 whole entry): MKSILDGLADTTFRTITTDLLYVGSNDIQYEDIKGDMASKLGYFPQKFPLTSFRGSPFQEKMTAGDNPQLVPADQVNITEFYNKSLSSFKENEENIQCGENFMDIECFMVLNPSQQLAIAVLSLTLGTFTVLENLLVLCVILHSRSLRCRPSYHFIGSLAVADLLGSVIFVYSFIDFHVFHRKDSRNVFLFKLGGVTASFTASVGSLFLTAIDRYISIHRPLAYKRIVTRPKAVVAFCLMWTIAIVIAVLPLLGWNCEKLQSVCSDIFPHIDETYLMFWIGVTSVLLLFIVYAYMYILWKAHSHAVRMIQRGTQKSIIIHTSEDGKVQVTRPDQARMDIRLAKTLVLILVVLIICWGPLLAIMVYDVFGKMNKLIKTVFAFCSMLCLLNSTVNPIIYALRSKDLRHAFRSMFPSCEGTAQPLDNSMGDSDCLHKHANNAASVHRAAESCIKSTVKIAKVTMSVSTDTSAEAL

Compound: CC(C)[C@H](NC(=O)c1nn(Cc2ccc(F)cc2)c2ccccc12)C(N)=O
- EC50: 2.1 nM
